Assay results published in paper PMC5209314, “Purification and characterization of a novel glutamate dehydrogenase from Geotrichum candidum with higher alcohol and amino acid activity” (AMB Express, 2017).

Legend:
Format in all cases: biochemical
[1] = molecular target: T1, glutamate dehydrogenase (GDH) from Geotrichum candidum S12 (Geotrichum candidum, UniProt A0A023RBK5); experiment: activity towards hexanol, GC; details: 0.3 mmol/L NAD+, 9.8 mmol/L hexanol, pH 4.0, 30 °C
T1 construct: identified by PMF similarity to Yaliof17820p (Yarrowia homologue)
T1 sequence (A0A023RBK5 1-452): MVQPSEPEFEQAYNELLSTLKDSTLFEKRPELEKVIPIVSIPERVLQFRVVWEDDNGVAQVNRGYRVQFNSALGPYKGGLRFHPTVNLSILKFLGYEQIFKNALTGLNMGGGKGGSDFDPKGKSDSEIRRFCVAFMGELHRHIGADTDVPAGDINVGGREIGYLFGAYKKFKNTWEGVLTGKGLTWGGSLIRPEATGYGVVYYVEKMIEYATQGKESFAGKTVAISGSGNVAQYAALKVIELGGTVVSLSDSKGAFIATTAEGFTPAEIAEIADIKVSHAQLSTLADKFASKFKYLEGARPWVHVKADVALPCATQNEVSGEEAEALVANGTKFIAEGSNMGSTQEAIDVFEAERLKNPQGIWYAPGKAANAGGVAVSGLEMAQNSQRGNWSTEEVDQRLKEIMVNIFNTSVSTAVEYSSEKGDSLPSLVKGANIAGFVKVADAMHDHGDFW

[2] = molecular target: T1, glutamate dehydrogenase (GDH) from Geotrichum candidum S12; experiment: residual activity towards hexanol, GC; details: read-out: Relative activity (%)^a
Text: residual activity towards hexanol, GC on glutamate dehydrogenase (GDH) from Geotrichum candidum S12

[3] = molecular target: T1, glutamate dehydrogenase (GDH) from Geotrichum candidum S12; experiment: activity towards hexanol, GC; details: read-out: Relative activity (%)^a
Text: activity towards hexanol, GC on glutamate dehydrogenase (GDH) from Geotrichum candidum S12

## NC(=O)c1ccc[n+]([C@@H]2O[C@H](COP(=O)(O)OP(=O)(O)OC[C@H]3O[C@@H](n4cnc5c(N)ncnc54)[C@H](O)[C@@H]3O)[C@@H](O)[C@H]2O)c1 [NAD^+]
[1]
  activity towards hexanol, GC: the enzyme could use NADP^+ and NAD^+ as a hydrogen acceptor of hexanol

## Nc1ncnc2c1ncn2[C@@H]1O[C@H](COP(=O)(O)OP(=O)(O)OP(=O)(O)O)[C@@H](O)[C@H]1O [ATP]
[2]
  activity at 1000 µM: 14.3 ± 0.84%

## Nc1ncnc2c1ncn2[C@@H]1O[C@H](COP(=O)(O)OP(=O)(O)O)[C@@H](O)[C@H]1O [ADP]
[3]
  activity at 1000 µM: 138 ± 3.72%
